“And” between values parts separate entries of the source, which are not always exact repeats. Identical values can stand only once. Toxic doses and inconclusive results are not listed. Rule as the data show it: active = T/C of 150% or more; inactive = T/C below 125%.
Test system: L1210 leukemia ip in BDF1 mice, survival T/C
Assay: NCI In Vivo Anticancer Drug Screen. Data for tumor model L1210 Leukemia (intraperitoneal) in B6D2F1 (BDF1) mice
Settings: endpoint: mean survival time, higher = longer survival
Method in brief: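 Survival endpoint. Drug-treated group vs vehicle group, expressed as T divided by C. Tumor passaged by transplantation.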

[1] = dose: 100.0 mg/kg/injection, schedule: Q04DX003 (ip), vehicle: saline with Tween-80
[2] = dose: 200.0 mg/kg/injection, schedule: Q04DX003 (ip), vehicle: saline with Tween-80
[3] = dose: 400.0 mg/kg/injection, schedule: Q04DX003 (ip), vehicle: saline with Tween-80
[4] = dose: 100.0 mg/kg/injection, schedule: Q01DX001 (ip), vehicle: carboxymethylcellulose (CMC)
[5] = dose: 200.0 mg/kg/injection, schedule: Q01DX001 (ip), vehicle: carboxymethylcellulose (CMC)
[6] = dose: 400.0 mg/kg/injection, schedule: Q01DX001 (ip), vehicle: carboxymethylcellulose (CMC)
[7] = dose: 50.0 mg/kg/injection, schedule: Q01DX009 (ip), vehicle: saline with Tween-80
[8] = dose: 100.0 mg/kg/injection, schedule: Q04DX003 (ip), vehicle: saline
[9] = dose: 100.0 mg/kg/injection, schedule: Q01DX009 (ip), vehicle: saline with Tween-80
[10] = dose: 200.0 mg/kg/injection, schedule: Q01DX009 (ip), vehicle: saline with Tween-80
[11] = dose: 25.0 mg/kg/injection, schedule: Q01DX009 (ip), vehicle: saline
[12] = dose: 50.0 mg/kg/injection, schedule: Q01DX009 (ip), vehicle: saline
[13] = dose: 100.0 mg/kg/injection, schedule: Q01DX009 (ip), vehicle: saline

Measured: T/C

CCOC(=O)C(C)(C(=O)OCC)c1cc(OC)c(C)cc1Br
inactive: dose: 50.0 mg/kg/injection, schedule: Q04DX003 (ip), vehicle: saline with Tween-80 100 % of control | [1] 103 % of control | [2] 100 % of control | [3] 97 % of control

O=C1NCC/C1=C\c1cc2c(cc1[N+](=O)[O-])OCO2
inactive: dose: 50.0 mg/kg/injection, schedule: Q01DX001 (ip), vehicle: carboxymethylcellulose (CMC) 88 % of control | [4] 90 % of control | [5] 100 % of control | [6] 90 % of control

CCc1ccc(C(=O)O)oc1=O
inactive: dose: 75.0 mg/kg/injection, schedule: Q01DX001 (ip), vehicle: saline 89 % of control | dose: 150.0 mg/kg/injection, schedule: Q01DX001 (ip), vehicle: saline 92 % of control

CN(C)C(=O)Nc1cccc(OC(=O)NC2CCCCC2)c1
inactive: dose: 100.0 mg/kg/injection, schedule: Q01DX001 (ip), vehicle: saline with Tween-80 97 % of control | dose: 200.0 mg/kg/injection, schedule: Q01DX001 (ip), vehicle: saline with Tween-80 92 % of control | dose: 400.0 mg/kg/injection, schedule: Q01DX001 (ip), vehicle: saline with Tween-80 87 % of control

S=C(NCCNC(=S)[S][Sn]([c]1ccccc1)([c]1ccccc1)[c]1ccccc1)[S][Sn]([c]1ccccc1)([c]1ccccc1)[c]1ccccc1
inactive: dose: 4.0 mg/kg/injection, schedule: Q01DX015 (ip), vehicle: carboxymethylcellulose (CMC) 97 % of control | dose: 8.0 mg/kg/injection, schedule: Q01DX015 (ip), vehicle: carboxymethylcellulose (CMC) 97 % of control | dose: 16.0 mg/kg/injection, schedule: Q01DX015 (ip), vehicle: carboxymethylcellulose (CMC) 94 % of control | dose: 25.0 mg/kg/injection, schedule: Q01DX009 (ip), vehicle: saline with Tween-80 92 % of control | dose: 32.0 mg/kg/injection, schedule: Q01DX015 (ip), vehicle: carboxymethylcellulose (CMC) 94 % of control and 104 % of control | [7] 91 % of control | dose: 64.0 mg/kg/injection, schedule: Q01DX015 (ip), vehicle: carboxymethylcellulose (CMC) 112 % of control | [4] 100 % of control | [1] 96 % of control | [5] 100 % of control | [6] 102 % of control

Oc1ccccc1C=Nc1ccccc1O
inactive: dose: 33.0 mg/kg/injection, schedule: Q04DX002 (ip), vehicle: gum acacia 103 % of control | dose: 50.0 mg/kg/injection, schedule: Q04DX002 (ip), vehicle: gum acacia 100 % of control | dose: 75.0 mg/kg/injection, schedule: Q04DX002 (ip), vehicle: gum acacia 100 % of control | dose: 100.0 mg/kg/injection, schedule: Q01DX009 (ip), vehicle: gum acacia 89 % of control | dose: 100.0 mg/kg/injection, schedule: Q04DX002 (ip), vehicle: gum acacia 104 % of control | dose: 200.0 mg/kg/injection, schedule: Q01DX009 (ip), vehicle: gum acacia 105 % of control | dose: 200.0 mg/kg/injection, schedule: Q04DX002 (ip), vehicle: gum acacia 107 % of control | dose: 400.0 mg/kg/injection, schedule: Q01DX009 (ip), vehicle: gum acacia 89 % of control

O=C(COc1ccc(Cl)cc1Cl)OCCOc1ccc(Cl)cc1
inactive: dose: 100.0 mg/kg/injection, schedule: Q04DX002 (ip), vehicle: Klucel (hydroxypropylcellulose) (HPC) 97 % of control | dose: 200.0 mg/kg/injection, schedule: Q04DX002 (ip), vehicle: Klucel (hydroxypropylcellulose) (HPC) 97 % of control | dose: 400.0 mg/kg/injection, schedule: Q04DX002 (ip), vehicle: Klucel (hydroxypropylcellulose) (HPC) 118 % of control

CC(C)(C)OOC(=O)c1ccccc1O
inactive: dose: 100.0 mg/kg/injection, schedule: Q01DX009 (ip), vehicle: saline sonified 113 % of control | [8] 106 % of control | dose: 200.0 mg/kg/injection, schedule: Q04DX003 (ip), vehicle: saline 106 % of control | dose: 400.0 mg/kg/injection, schedule: Q04DX003 (ip), vehicle: saline 110 % of control

CCCCN(C)N=Nc1cn(C2OC(CO)C(O)C2O)c(=O)n(C)c1=O (stereo not drawn)
inactive: dose: 100.0 mg/kg/injection, schedule: Q01DX005 (ip), vehicle: saline 119 % of control

CC(=O)c1ccccc1[N+](=O)[O-]
inactive: [1] 107 % of control | [2] 96 % of control | [3] 94 % of control

CC(C)=NNS(=O)(=O)c1ccccc1
inactive: [7] 106 % of control | [9] 108 % of control | [10] 101 % of control

C[n+]1cccc2ccccc21
inactive: dose: 12.5 mg/kg/injection, schedule: Q04DX003 (ip), vehicle: saline 96 % of control | dose: 25.0 mg/kg/injection, schedule: Q04DX003 (ip), vehicle: saline 93 % of control and 91 % of control | dose: 50.0 mg/kg/injection, schedule: Q04DX003 (ip), vehicle: saline 93 % of control and 95 % of control | [8] 93 % of control and 105 % of control

COC1C2CCC1[N+](C)(C)CC2 (stereo not drawn)
inactive: [11] 101 % of control | [12] 105 % of control | [13] 107 % of control and 110 % of control

CCOC(=O)CCC(NC(=O)c1ccccc1NC)C(=O)OCC (stereo not drawn)
inactive: [9] 94 % of control | [10] 92 % of control | dose: 400.0 mg/kg/injection, schedule: Q01DX009 (ip), vehicle: saline with Tween-80 101 % of control

CC(=O)C1(C)C(=O)N(c2ccc(C)cc2)C(=O)N1c1ccc(C)cc1 (stereo not drawn)
inactive: dose: 100.0 mg/kg/injection, schedule: Q01DX001 (ip), vehicle: saline 104 % of control | dose: 200.0 mg/kg/injection, schedule: Q01DX001 (ip), vehicle: saline 102 % of control | dose: 400.0 mg/kg/injection, schedule: Q01DX001 (ip), vehicle: saline 102 % of control

[N-]=[N+]=Nc1ccc2[nH]c3ccccc3c(=O)c2c1
inactive: [12] 90 % of control | [13] 93 % of control | dose: 100.0 mg/kg/injection, schedule: Q04DX003 (ip), vehicle: acetone 92 % of control | dose: 200.0 mg/kg/injection, schedule: Q01DX009 (ip), vehicle: saline 95 % of control | dose: 200.0 mg/kg/injection, schedule: Q04DX003 (ip), vehicle: acetone 97 % of control | dose: 400.0 mg/kg/injection, schedule: Q04DX003 (ip), vehicle: acetone 97 % of control

c1ccc(-c2cnc(-c3ccccc3)[nH]2)cc1
inactive: [1] 97 % of control | [2] 100 % of control | [3] 100 % of control

[N-]=[N+]=NCC1OCOC1C1OCOC1CN=[N+]=[N-] (stereo not drawn)
inactive: [11] 96 % of control | [12] 98 % of control | [13] 102 % of control

O=C(/C=C/c1ccc([N+](=O)[O-])o1)c1cccc([N+](=O)[O-])c1
inactive: dose: 25.0 mg/kg/injection, schedule: Q01DX009 (ip), vehicle: Klucel (hydroxypropylcellulose) (HPC) 100 % of control | dose: 50.0 mg/kg/injection, schedule: Q01DX009 (ip), vehicle: Klucel (hydroxypropylcellulose) (HPC) 103 % of control
